Like-named read-outs stand apart in the source and are kept apart here. Non-standard residues stand in square brackets, D forms with d. Residues, ends and D or L forms follow the SMILES beside them. *: point of attachment. pY = N[C@@H](Cc1ccc(OP(=O)(O)O)cc1)C(=O)O; Caffeoyl = O=C(/C=C/c1ccc(O)c(O)c1)*
Key:
Assay in all cases: biochemical
Type in all cases: binding
GRB10 = biological target: T1, GRB10 (Homo sapiens, UniProt Q13322); conditions: for percent of DMSO vehicle control at 10 µM / remaining activity at 10 µM: read-out: percent of DMSO vehicle control
T1 construct: the DNA-tagged SH2 domain concentrations used in this study were <0.1 nM; made in house; host or cells: HEK293 (transient transfection; unpurified extract)
T1 sequence (Q13322 493-574 limits assumed): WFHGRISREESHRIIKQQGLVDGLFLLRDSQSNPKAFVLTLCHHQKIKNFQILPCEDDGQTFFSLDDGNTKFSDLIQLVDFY

PIK3R3(SH2dom.N-term.) = biological target: T2, PIK3R3(SH2dom.N-term.) (Homo sapiens, UniProt Q92569); conditions: for remaining activity at 10 µM: read-out: percent of DMSO vehicle control
T2 construct: SH2dom.N-term. denotes SH2 domain closest to N-terminus of protein; made in house; host or cells: HEK293 (transient transfection, unpurified extract)

STAT1 = biological target: T3, STAT1 (Homo sapiens, UniProt P42224); conditions: for remaining activity at 10 µM: read-out: percent of DMSO vehicle control
T3 construct: made in house; host or cells: HEK293 (transient transfection), unpurified extract
T3 sequence (P42224 1-750): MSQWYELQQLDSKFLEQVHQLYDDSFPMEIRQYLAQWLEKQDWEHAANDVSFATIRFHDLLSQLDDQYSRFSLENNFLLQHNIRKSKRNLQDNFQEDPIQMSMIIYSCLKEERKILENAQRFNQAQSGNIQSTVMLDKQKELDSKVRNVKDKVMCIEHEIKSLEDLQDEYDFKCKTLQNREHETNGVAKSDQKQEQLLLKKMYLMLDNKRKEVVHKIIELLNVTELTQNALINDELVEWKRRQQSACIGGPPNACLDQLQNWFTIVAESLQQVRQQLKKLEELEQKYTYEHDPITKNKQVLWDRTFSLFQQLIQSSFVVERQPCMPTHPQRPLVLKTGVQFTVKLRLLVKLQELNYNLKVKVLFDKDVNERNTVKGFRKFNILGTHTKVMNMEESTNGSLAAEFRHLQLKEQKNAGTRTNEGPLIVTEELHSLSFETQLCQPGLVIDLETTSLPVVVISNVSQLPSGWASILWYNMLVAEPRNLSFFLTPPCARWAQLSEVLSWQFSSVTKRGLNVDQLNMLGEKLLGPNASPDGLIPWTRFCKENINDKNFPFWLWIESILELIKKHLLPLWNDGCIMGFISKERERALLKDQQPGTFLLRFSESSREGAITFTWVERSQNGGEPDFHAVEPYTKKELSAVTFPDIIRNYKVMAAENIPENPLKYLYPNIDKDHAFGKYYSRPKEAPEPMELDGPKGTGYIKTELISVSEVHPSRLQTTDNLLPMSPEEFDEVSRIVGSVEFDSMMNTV

LYN = biological target: T4, LYN (Homo sapiens, UniProt P07948); conditions: for remaining activity at 10 µM: read-out: percent of DMSO vehicle control
T4 construct: the DNA-tagged SH2 domain concentrations used in this study were <0.1 nM; made in house; host or cells: HEK293 (transient transfection, unpurified extract)

SH2B (SH2B1) = biological target: T5, SH2B (SH2B1) (Homo sapiens, UniProt Q9NRF2); conditions: for remaining activity at 10 µM: read-out: percent of DMSO vehicle control
T5 construct: made in house; host or cells: HEK293 (transient transfection), unpurified extract

GADS = biological target: T6, GADS (Homo sapiens, UniProt O75791); conditions: for percent of DMSO vehicle control at 10 µM / remaining activity at 10 µM: read-out: percent of DMSO vehicle control
T6 construct: the DNA-tagged SH2 domain concentrations used in this study were <0.1 nM; made in house; host or cells: HEK293 (transient transfection; unpurified extract)
T6 sequence (O75791 58-149 limits assumed): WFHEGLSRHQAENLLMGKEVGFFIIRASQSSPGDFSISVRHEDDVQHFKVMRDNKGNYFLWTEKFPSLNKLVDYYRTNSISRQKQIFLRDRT

ABL2 = biological target: T7, ABL2 (Homo sapiens, UniProt P42684); conditions: for percent of DMSO vehicle control at 10 µM / remaining activity at 10 µM: read-out: percent of DMSO vehicle control
T7 construct: the DNA-tagged SH2 domain concentrations used in this study were <0.1 nM; made in house; host or cells: HEK293 (transient transfection; unpurified extract)
T7 sequence (P42684 173-263 limits assumed): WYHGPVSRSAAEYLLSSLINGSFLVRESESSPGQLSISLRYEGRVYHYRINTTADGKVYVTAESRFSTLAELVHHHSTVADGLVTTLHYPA

SHB = biological target: T8, SHB (Homo sapiens, UniProt Q15464); conditions: for remaining activity at 10 µM: read-out: percent of DMSO vehicle control
T8 construct: made in house; host or cells: HEK293 (transient transfection), unpurified extract

SRMS = biological target: T9, SRMS (Homo sapiens, UniProt Q9H3Y6); conditions: for remaining activity at 10 µM: read-out: percent of DMSO vehicle control; for KD: dose-response
T9 construct: made in house; host or cells: HEK293 (transient transfection), unpurified extract
T9 sequence (Q9H3Y6 whole entry): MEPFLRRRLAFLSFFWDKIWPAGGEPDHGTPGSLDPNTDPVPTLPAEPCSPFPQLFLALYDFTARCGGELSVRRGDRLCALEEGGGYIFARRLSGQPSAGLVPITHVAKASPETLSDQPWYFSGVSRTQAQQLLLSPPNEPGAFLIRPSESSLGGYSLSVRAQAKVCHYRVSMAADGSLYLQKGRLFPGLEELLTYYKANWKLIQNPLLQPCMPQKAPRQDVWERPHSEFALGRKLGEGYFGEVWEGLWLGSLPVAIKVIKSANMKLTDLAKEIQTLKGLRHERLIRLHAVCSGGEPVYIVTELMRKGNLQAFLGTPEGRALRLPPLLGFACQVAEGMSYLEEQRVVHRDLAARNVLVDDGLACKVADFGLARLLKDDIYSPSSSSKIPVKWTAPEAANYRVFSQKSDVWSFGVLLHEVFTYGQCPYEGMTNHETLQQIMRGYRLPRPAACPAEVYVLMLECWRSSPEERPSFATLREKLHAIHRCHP

T8 sequence (Q15464 whole entry): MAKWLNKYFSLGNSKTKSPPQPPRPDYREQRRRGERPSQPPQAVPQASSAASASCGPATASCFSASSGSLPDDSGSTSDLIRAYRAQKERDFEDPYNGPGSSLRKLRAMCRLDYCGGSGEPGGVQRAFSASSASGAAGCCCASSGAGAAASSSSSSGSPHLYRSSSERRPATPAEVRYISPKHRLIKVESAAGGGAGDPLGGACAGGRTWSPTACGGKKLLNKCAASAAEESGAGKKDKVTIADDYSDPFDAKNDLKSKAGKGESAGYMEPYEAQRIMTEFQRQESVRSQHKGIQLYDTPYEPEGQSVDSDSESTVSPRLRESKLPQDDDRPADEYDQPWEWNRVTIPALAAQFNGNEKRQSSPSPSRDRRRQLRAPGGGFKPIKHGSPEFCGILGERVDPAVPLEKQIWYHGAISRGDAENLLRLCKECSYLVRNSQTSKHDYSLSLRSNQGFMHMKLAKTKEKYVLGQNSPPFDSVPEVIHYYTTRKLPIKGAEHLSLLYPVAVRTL
T4 sequence (P07948 129-226 limits assumed): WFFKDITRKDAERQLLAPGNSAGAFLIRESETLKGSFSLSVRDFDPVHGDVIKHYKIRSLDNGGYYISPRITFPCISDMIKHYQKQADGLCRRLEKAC

Structure (SMILES) | percent of DMSO vehicle control at 10 µM (GRB10) [%] | remaining activity at 10 µM (PIK3R3(SH2dom.N-term.)) [%] | remaining activity at 10 µM (STAT1) [%] | remaining activity at 10 µM (LYN) [%] | remaining activity at 10 µM (SH2B (SH2B1)) [%] | percent of DMSO vehicle control at 10 µM (GADS) [%] | percent of DMSO vehicle control at 10 µM (ABL2) [%] | remaining activity at 10 µM (SHB) [%] | remaining activity at 10 µM (SRMS) [%] | remaining activity at 10 µM (GRB10; primary screen, 10 μM) [%] | remaining activity at 10 µM (PIK3R3(SH2dom.N-term.); primary screen, 10 μM) [%] | remaining activity at 10 µM (STAT1; primary screen, 10 μM) [%] | remaining activity at 10 µM (LYN; primary screen, 10 μM) [%] | remaining activity at 10 µM (SH2B (SH2B1); primary screen, 10 μM) [%] | remaining activity at 10 µM (GADS; primary screen, 10 μM) [%] | remaining activity at 10 µM (ABL2; primary screen, 10 μM) [%] | remaining activity at 10 µM (SHB; primary screen, 10 μM) [%] | KD (SRMS) | remaining activity at 10 µM (SRMS; primary screen, 10 μM) [%] | Kd (STAT1; dose-response, read-out: KD) [nM] | further results
CC[C@H](C)[C@H](NC(=O)[C@H](CCC(=O)O)NC(=O)[C@H](CCC(=O)O)NC(=O)[C@H](Cc1ccc(OP(=O)(O)O)cc1)NC(C)=O)C(=O)N[C@@H](CCC(=O)O)C(N)=O [Ac-pYEEIE-NH2] (Ac-[pY]EEIE-NH2) | – | – | – | – | – | – | – | – | – | – | – | – | – | – | – | – | – | – | – | – | percent of DMSO vehicle control (GRB10; primary screen, 10 μM): 155.2%; percent of DMSO vehicle control (PIK3R3(SH2dom.N-term.); primary screen, 10 μM): 85.7%; percent of DMSO vehicle control (STAT1; primary screen, 10 μM): 69.3%; percent of DMSO vehicle control (LYN; primary screen, 10 μM): 38.1±2.4%; percent of DMSO vehicle control (SH2B (SH2B1); primary screen, 10 μM): 126.6%; percent of DMSO vehicle control (GADS; primary screen, 10 μM): 115.5%; percent of DMSO vehicle control (ABL2; primary screen, 10 μM): 110.7%; percent of DMSO vehicle control (SHB; primary screen, 10 μM): 117.6%; percent of DMSO vehicle control (SRMS; primary screen, 10 μM): 62.7±1.1%
CC(=O)N[C@@H](Cc1ccc(CP(=O)(O)O)cc1)C(=O)NC1(C(=O)N[C@@H](CC(N)=O)C(=O)NCCCc2c(O)ccc3ccccc23)CCCCC1 [CGP78850] | 88.5 ± 13.4 | 111 ± 10.3 | 71.2 ± 2.1 | 40 | 125 ± 1.9 | 42 ± 2.5 | 6.2 ± 0.1 | 97.4 ± 9.4 | 65.3 ± 5.9 | – | – | – | – | – | – | – | – | – | – | – | Kd (ABL2): 1100 ± 120 nM
CC[C@H](C)[C@H](NC(=O)[C@H](CCC(=O)O)NC(=O)[C@H](CCC(=O)O)NC(=O)[C@H](Cc1ccc(OP(=O)(O)O)cc1)NC(=O)/C=C/c1ccc(O)c(O)c1)C(=O)N[C@@H](CCC(=O)O)C(=O)O [Caffeic acid-pYEEIE] (Caffeoyl-[pY]EEIE-OH) | 0.7 ± 0.9 | 0.6 | 27.1 ± 21.3 | 0 | 2.3 ± 0.4 | 94.8 | 0.7 ± 0.4 | 1.8 ± 0.1 | 0.1 | – | – | – | – | – | – | – | – | – | – | – | Kd (GRB10): 480 ± 79 nM; Kd (PIK3R3(SH2dom.N-term.)): 150 ± 20 nM; KD (STAT1; dose-response): No Hit; Kd (LYN): 1 ± 0.34 nM; Kd (SH2B (SH2B1)): 910 ± 310 nM; Kd (ABL2): 1400 ± 360 nM; Kd (SHB): 1200 ± 530 nM; Kd (SRMS): 1.2 ± 0.73 nM
O=C(CCl)Nc1cccc(CNC(=O)[C@H](Cc2ccc(OP(=O)(O)O)cc2)NC(=O)Cc2ccc(F)cc2)c1 [MN551] | – | – | – | – | – | – | – | – | – | 61.8 | 97.7 | 49.8 ± 4.1 | 161 | 105 | 42.9 ± 0.8 | 94.6 ± 1.6 | 102 | No Hit | 1.3 ± 0.6 | – | –
NC(=O)CC[C@H](NC(=O)[C@@H]1CC[C@@H]2CCN(C(=O)CCCCCC#Cc3cccc4c3CN(C3CCC(=O)NC3=O)C4=O)C[C@H](NC(=O)c3cc4cc(C(F)(F)P(=O)(O)O)ccc4[nH]3)C(=O)N21)C(=O)NC(c1ccccc1)c1ccccc1 (stereo partly drawn) [SD-36] | 111 ± 9.2 | 111 ± 7.3 | 9.1 | 90.9 ± 2.3 | 68.4 ± 0.4 | 140.4 ± 0.2 | 126 | 87.7 ± 2.3 | 102 ± 1.9 | – | – | – | – | – | – | – | – | – | – | – | Kd (STAT1; dose-response): 180 ± 61 nM
CC(=O)N1CC[C@H]2CC[C@@H](C(=O)N[C@@H](CCC(N)=O)C(=O)NC(c3ccccc3)c3ccccc3)N2C(=O)[C@@H](NC(=O)c2cc3cc(C(F)(F)P(=O)(O)O)ccc3[nH]2)C1 [SI-109] | 122 | 142 | 0 | 140 | 149 | 276 | 122 | 129 | 123 | – | – | – | – | – | – | – | – | – | – | – | Kd (STAT1): 180 ± 35 nM
C/C(=C\C(=O)N[C@H](C(=O)N1CCC[C@H]1C(=O)N(c1ccccc1)c1ccc(I)cc1)C(C)(C)C)c1ccc(OP(=O)(O)O)cc1 [STAT6-IN-1] | – | – | – | – | – | – | – | – | – | 14.6 ± 11 | 48.3 ± 1.7 | 0 | 73.6 ± 54 | 22.6 ± 6.8 | 9.6 ± 0.1 | 98.1 ± 4.2 | 28.7 ± 0.4 | No Hit | 7.6 ± 0.5 | 330 ± 73 | KD (GRB10; dose-response): No Hit; Kd (GADS; dose-response, read-out: KD): 2400 nM; KD (SHB; dose-response): No Hit
CC(C)(C)[C@H](NC(=O)/C=C/c1ccc(OP(=O)(O)O)cc1)C(=O)N1CCC[C@H]1C(=O)N(c1ccccc1)c1ccc(I)cc1 [STAT6-IN-3] | – | – | – | – | – | – | – | – | – | 58.8 ± 17.6 | 85.8 ± 16.7 | 0.7 ± 0.6 | 82.3 ± 17.1 | 78.1 ± 4.8 | 76.5 ± 7.9 | 108 ± 3.5 | 53.4 ± 23.5 | No Hit | 8.5 ± 53.2 | 670 ± 330 | –
O=C(COc1ccc2cc(C(=O)Nc3ccccc3)ccc2c1)NCc1ccc(OP(=O)(O)O)c(OP(=O)(O)O)c1 [Stafib-1] | – | – | – | – | – | – | – | – | – | 78.1 ± 12.9 | 105 | 48.2 ± 5.4 | 95.6 ± 22.4 | 92.7 ± 14.3 | 51.9 ± 12.6 | 106 | 114 | No Hit | 8.9 ± 56.2 | 37000 | –

Source: PMC12951562, “SH2scan: Mapping SH2 Domain-Ligand Binding Selectivity for Inhibitors and Degraders” (Journal of Medicinal Chemistry, 2026)
